Non-standard residues stand in square brackets, D forms with d. No end group written: not given here.

Series [1] concerns EAE in Lewis rats. As to the kind of experiment: Treatment of MBP(83-99)-induced EAE in Lewis rats with peptide analogs (subcutaneous). The format is in vivo, Lewis rat. Conditions: 13.2 mg/kg subcutaneously on day 9, FIGS. 10 and 11. As for the experimental part:
In this system, experimental allergic encephalomyelitis (EAE) was induced in twelve female Lewis rats by injection of MBP(83-99) peptide in complete Freund's adjuvant (CFA) at the base of the tail. Nine days later, rats were divided into two groups of six animals and subcutaneously injected with 13.2 mg/kg of either peptide analog or a control peptide, sperm whale myoglobin (SWM) (110-121). Animals were monitored daily for disease symptoms and scored in a blinded fashion on a nonlinear ascending scale of 0-4 with increments denoting increasing paralysis. Each individual score was averaged with group cohorts to obtain the mean clinical score.

Series [2] concerns Dr2b restricted human T cell clones reactive to MBP. As to the kind of experiment: Human T cell proliferation, Dr2b restricted clones. The format is cell-based. To be noted: Dr2b restricted clone 5F6, 50 μM, FIG. 19. The method, then:
(§1) Human T cells reactive to MBP (83-99) may alternatively be used to measure the ability of the peptide analog to inhibit proliferation of T cells induced by native MBP (83-99) peptide. MBP-specific T cells may be obtained as previously described by Martin et al., J. Immunol. 148:1359-1366, 1992. Briefly, T cell lines are established by culture of human T cells with irradiated, DR-matched peripheral blood cells in MEM supplemented with 2 mM L-glutamine, 50 μg/ml gentamicin, penicillin and streptomycin, 100 U/ml rIL-2, and 10% human AB negative serum. Proliferation of these T cell lines is stimulated by culturing a clone with varying concentration (1.1-30 μM) of native […] peptide, 50 μM of the peptide analog or SWM peptide, in the presence of irradiated, DR matched peripheral blood cells, following incubation for approximately 60 hours, the cells are pulsed with ^3H-thymidine for 12 hours and harvested. The amount of incorporated ^3H-thymidine is measured.
The ability of the peptide analogs NBI-5719, 5748, 5765, 5788 and 5789 (SEQ ID NOs: 4-8 respectively) to affect human T cell proliferation was assessed. A constant amount of peptide analog or the control peptide SWM (50 μM) was cultured with varying concentrations of native MBP(83-99) peptide (1.1-30 μM) in the presence of irradiated, DR matched peripheral blood cells and T cell clones derived from various MS patients. Human T cells (1×10^6) were cultured with DR matched, irradiated peripheral blood cells (PBL, 5×10^6) in medium containing IMDM supplemented with 3 μM MBP83-99, 2 mM L-glutamine, 50 μg/ml gentamicin penicillin/streptomycin, 100 U/ml r1L-2 and 10% human AB-negative serum. Cells were cultured for approximately 60 hours, pulsed with tritiated thymidine for 12 hours, and harvested. The amount of tritiated thymidine incorporated was measured, and the data represented as the mean plus or minus the standard error of the mean of replicate samples.
The ability of the peptide analog to inhibit the proliferative response of MBP-reactive T cells isolated from Dr2b (DrB1* 1501) individuals was determined. A constant amount of NBI-5788 (50 μM) was cultured with varying concentrations of native peptide (1.1-30 μM) in the presence of irradiated, DR matched peripheral blood cells and T cell clones derived from various MS patients.

The test system of series [3] is Dr4 Dw4 restricted human T cell clone MS-1. Briefly: Human T cell proliferation, Dr4 Dw4 restricted clone MS-1. To be noted: FIG. 20. The format is cell-based. As for the experimental part:
as §1
The ability of the peptide analogs NBI-5719, 5748, 5765, 5788 and 5789 (SEQ ID NOs: 4-8 respectively) to affect human T cell proliferation was assessed. […] The amount of tritiated thymidine incorporated was measured, and the data represented as the mean plus or minus the standard error of the mean of replicate samples.

Series [4] has as its system Dr2b-restricted T cell clone 5F6. Briefly: Cytokine production (TNF-α, IFN-γ) by T cell clone 5F6, EIA. The series is classed as cell-based, human. Conditions: even at concentrations of 50 μM (data not shown). As for the experimental part:
As discussed in detail below, the production of cytokines may also be assessed. In particular, TNF-α and IFN-γ production are especially interesting. These pro-inflammatory cytokines are thought to play a role in the pathogenesis of the disease. Briefly, T cell clone is incubated in the presence of stimulating MBP peptide and peptide analog or control peptide (SWM) or medium only. After a 24 hour incubation, the levels of TNF-α and IFN-γ in the supernatant are determined using commercially available EIA kits (Endogen, Cambridge, Mass.).
The ability of the peptide analog ligand to influence cytokine production was next measured. The Dr2b-restricted T cell clone 5F6 was incubated in the presence of 3 μM MBP peptide with either 10 μM of NBI-5788 (SEQ ID NO:7) or SWM or medium only. As a control, cells were cultured in the presence of medium alone. After 24 hours, supernatants were removed and the levels of tumor necrosis factor alpha (TNF-α) and interferon-y (IFN-γ) determined using commercially available EIA kits.

For series [5], the system named is EAE in SJL/J mice. Briefly: Inhibition of chronic relapsing EAE in SJL/J mice. The format is in vivo, mouse. To be noted: 20 mg/kg intraperitoneally weekly for 4 weeks. As for the experimental part: The SJL/J (H-2^5) mouse develops a chronic relapsing form of EAE in response to immunization with MBP(83-99) peptide in the presence of pertussis vaccine. The ability of the peptide analogs NBI-5719 (SEQ ID NO:4) and NBI-5765 (SEQ ID NO:6) to inhibit the disease was evaluated (see FIG. 12).
Groups of 10 animals were injected intraperitoneally weekly for 4 weeks with 20 mg/kg of either a control peptide or the peptide analog. The animals were then monitored for disease over the next 2-3 months. […] Beginning around day 70, a relapse occurred reaching a mean clinical score of about 1. […] This is particularly striking since the animals had not been exposed to the APL for approximately one month.

Series [6] concerns rat MHC class II I-A or I-E on splenic adherent cells. As to the kind of experiment: MHC binding assay (competition with biotin-labeled MBP peptide, flow cytometry). Also noted: species or system Lewis rat. To be noted: at 100 μM. As for the experimental part: Binding of peptides to MHC molecules may be assayed on whole cells. Briefly, Lewis rat spleen cells are cultured for 3 hours to allow adherent cells to stick to polystyrene petri dishes. Non-adherent cells are removed. Adherent cells, which contain cells expressing MHC class II molecules, are collected by scraping the dishes. The binding of peptide analogs to cells is measured by a fluorescence assay. In this assay, splenic adherent cells are mixed with different concentrations of peptide analogs and incubated for 1 hour at 37° in a CO2 incubator. Following incubation, biotinlabeled MBP (87-99) is added to the culture wells. The cells are incubated for another hour and then washed three times in medium. […] Fluorescence intensity is calculated by subtracting the fluorescence value obtained from cells stained with phycoerythrin-streptavidin alone (control staining) from the fluorescence value obtained from biotin-labeled MBP native peptide plus phycoerythrin-streptavidin (experimental staining). […] Percent inhibition is calculated for each analog and expressed as IC50 values.
The ability of MBP peptides and peptide analogs to bind MHC was measured. […] The binding of MBP (87-99) analogs was measured using a fluorescence assay. […] Percent inhibition was calculated for each analog and expressed as IC50 values.
Background: Flow cytometry measures light scatter and fluorescence of single cells or particles in a stream.

Series [7] has as its system MS patients. Conditions: human, in vivo; cited from earlier work.

As for “NBI-5765: peptide analog of MBP (83-99), SEQ ID NO:6, sequence in FIG. 8 ([dA]NPVVHAFANIVTPRTP)”, in series [1], the “effect on EAE disease severity versus control peptide” value was “significantly reduced the magnitude of the disease”. Further, the “inhibition of MBP-dependent proliferation of clone 5F6” value in series [2] is “inhibited the MBP-dependent proliferation in a concentration dependent fashion”. Moreover, in series [3], the “inhibition of MBP-dependent proliferation of clone MS-1” value is “inhibited the MBP-dependent proliferation in a concentration dependent fashion”. Besides, the “stimulation of cytokine production over background by the analog itself” value in series [4] was “None”. In addition, the “effect on first phase of EAE” value in series [5] (FIG. 12) was “reduced the level of the disease in the first phase”. The “effect on relapse of EAE” value in series [5] (relapse around day 70) is “reduced the severity of the relapse”.

In the case of “a83, A89, A91: analog with residue 83 altered to D-alanine, residue 89 to alanine, and residue 91 to alanine”, in series [6], the “inhibition of binding of biotin-labeled MBP peptide to MHC” value came out at 25%.

With “NBI-5789: peptide analog of MBP (83-99), SEQ ID NO:8, sequence in FIG. 8 ([dA]KPVVHAFANIVTPRTP)”, in series [2], the “inhibition of MBP-dependent proliferation of clone 5F6” value is “inhibited the MBP-dependent proliferation in a concentration dependent fashion”. Besides, in series [4], the “stimulation of cytokine production over background by the analog itself” value is “None”.

B1: IFN-γ: cytokine administered in a pilot study in MS patients (protein, UniProt P01579 24-161, looked up)
Interferon gamma: QDPYVKEAENLKKYFNAGHSDVADNGTLFLGILKNWKEESDRKIMQSQIVSFYFKLFKNFKDDQSIQKSVETIKEDMNVKFFNSNKKKRDDFEKLTNYSVTDLNVQRKAIHELIQVMAELSPAAKTGKRKRSQMLFRG
In the case of B1, the “patients with a clinical exacerbation within one month after initiation of treatment” value in series [7] was 7 of 18.

The values above are taken from patent US6379670B1, “Methods for treatment of multiple sclerosis using peptide analogs of human myelin basic protein” (Neurocrine Biosciences, Inc., priority 1994, dated 2002).
